Data from patent US8076487B2, “Pyridone derivative and herbicide” (Kumiai Chemical Industry Co., Ltd., priority 2006, dated 2011).

Experiments:
Assay in all cases: Test Example 1: herbicidal effect by soil application to paddy field
Assay type in all cases: in vivo
Details in all cases: paddy field soil application; active ingredient 1,000 g per 1 hectare; wettable powder added dropwise to water surface the day after sowing; examined on the 21st day after application
[1] = test system: Japanese bulrush (Scirpus juncoides Roxb.)
Source text: (§1) Test Example 1 Test on Herbicidal Effect by Soil Application to Paddy Field In a 100 cm2 plastic pot, paddy field soil was filled. After puddling and leveling, seeds of early watergrass (Echinochloa oryzicola […] (Monochoria vaginalis ([…] Japanese bulrush (Scirpus juncoides Roxb.) were sown, and water was filled to be flooded to a water depth of 3 cm. […] Then, on the 21st day after the application to the plants grew in a greenhouse, the herbicidal effect was examined in accordance with a standard shown in Table 34. [table]

[2] = test system: early watergrass (Echinochloa oryzicola Vasing)
Source text: as §1

[3] = test system: heartshape false pickerelweed (Monochoria vaginalis (Burm.f.) C.Presl)
Source text: as §1

Row | SMILES | herbicidal effect, Scirpus juncoides Roxb. [1] | herbicidal effect, Echinochloa oryzicola Vasing [2] | herbicidal effect, Monochoria vaginalis (Burm. f.) C. Presl [3]
1 | Cc1ccc(S(=O)(=O)Oc2c(C(=O)c3ccc(C(F)(F)F)n(C)c3=O)c(C)nn2C)cc1 [IV-236] | 5 (90% or more of herbicidal effect and crop phytotoxicity) | 5 (90% or more of herbicidal effect and crop phytotoxicity) | 5 (90% or more of herbicidal effect and crop phytotoxicity)
2 | O=C1CCCC(O)=C1C(=O)c1ccc(C(F)(F)F)n(Cc2ccc([N+](=O)[O-])cc2)c1=O [I-117] | 5 (90% or more of herbicidal effect and crop phytotoxicity) | 5 (90% or more of herbicidal effect and crop phytotoxicity) | 5 (90% or more of herbicidal effect and crop phytotoxicity)
3 | CN(C(=O)OCc1ccccc1)n1c(C(F)(F)F)ccc(C(=O)C2=C(O)CCCC2=O)c1=O [I-197] | 5 (90% or more of herbicidal effect and crop phytotoxicity) | 5 (90% or more of herbicidal effect and crop phytotoxicity) | 5 (90% or more of herbicidal effect and crop phytotoxicity)
4 | Cn1c(C(F)(F)F)ccc(C(=O)C2=C(Sc3ccccc3Cl)CCCC2=O)c1=O [II-11] | 5 (90% or more of herbicidal effect and crop phytotoxicity) | 5 (90% or more of herbicidal effect and crop phytotoxicity) | 5 (90% or more of herbicidal effect and crop phytotoxicity)
5 | Cc1cc(C)c(C(=O)Oc2c(C(=O)c3ccc(C(F)(F)F)n(CC4CCCO4)c3=O)cnn2C)c(C)c1 (stereo not drawn) [IV-135] | 5 (90% or more of herbicidal effect and crop phytotoxicity) | 5 (90% or more of herbicidal effect and crop phytotoxicity) | 5 (90% or more of herbicidal effect and crop phytotoxicity)
6 | O=C1CCCC(O)=C1C(=O)c1ccc(C(F)(F)F)n(CS(=O)(=O)CC(F)(F)F)c1=O [I-64] | 5 (90% or more of herbicidal effect and crop phytotoxicity) | 4 (70 to less than 90% of herbicidal effect and crop phytotoxicity) | 5 (90% or more of herbicidal effect and crop phytotoxicity)
7 | CC(C)(C)OC(=O)Nn1c(C(F)(F)F)ccc(C(=O)C2=C(O)CCCC2=O)c1=O [I-193] | 5 (90% or more of herbicidal effect and crop phytotoxicity) | 5 (90% or more of herbicidal effect and crop phytotoxicity) | 5 (90% or more of herbicidal effect and crop phytotoxicity)
8 | CS(=O)(=O)c1ccc(Cn2c(C(F)(F)F)ccc(C(=O)C3=C(O)CCCC3=O)c2=O)cc1 [I-123] | 5 (90% or more of herbicidal effect and crop phytotoxicity) | 5 (90% or more of herbicidal effect and crop phytotoxicity) | 5 (90% or more of herbicidal effect and crop phytotoxicity)
9 | Cn1c(C(F)(F)F)ccc(C(=O)C2=C(Sc3c(Cl)c(Cl)c(Cl)c(Cl)c3Cl)CCCC2=O)c1=O [II-16] | 5 (90% or more of herbicidal effect and crop phytotoxicity) | 5 (90% or more of herbicidal effect and crop phytotoxicity) | 5 (90% or more of herbicidal effect and crop phytotoxicity)
10 | Cn1c(C(F)(F)F)ccc(C(=O)C2=C(Sc3c(Cl)cccc3Cl)CCCC2=O)c1=O [II-15] | 5 (90% or more of herbicidal effect and crop phytotoxicity) | 5 (90% or more of herbicidal effect and crop phytotoxicity) | 5 (90% or more of herbicidal effect and crop phytotoxicity)
11 | Cn1ncc(C(=O)c2ccc(C(F)(F)F)n(CC3CCCO3)c2=O)c1OC(=O)c1ccc(C(C)(C)C)cc1 (stereo not drawn) [IV-132] | 5 (90% or more of herbicidal effect and crop phytotoxicity) | 5 (90% or more of herbicidal effect and crop phytotoxicity) | 5 (90% or more of herbicidal effect and crop phytotoxicity)
12 | COc1cccc(Cn2c(C(F)(F)F)ccc(C(=O)C3=C(O)CCCC3=O)c2=O)c1 [I-121] | 5 (90% or more of herbicidal effect and crop phytotoxicity) | 5 (90% or more of herbicidal effect and crop phytotoxicity) | 5 (90% or more of herbicidal effect and crop phytotoxicity)
13 | CC1CCC(=O)C(C(=O)c2ccc(C(F)(F)F)n(C)c2=O)=C1O (stereo not drawn) [II-1] | 5 (90% or more of herbicidal effect and crop phytotoxicity) | 5 (90% or more of herbicidal effect and crop phytotoxicity) | 5 (90% or more of herbicidal effect and crop phytotoxicity)
14 | CCCS(=O)(=O)Oc1c(C(=O)c2ccc(C(F)(F)F)n(CCCS(C)(=O)=O)c2=O)cnn1C [IV-61] | 5 (90% or more of herbicidal effect and crop phytotoxicity) | 5 (90% or more of herbicidal effect and crop phytotoxicity) | 5 (90% or more of herbicidal effect and crop phytotoxicity)
15 | CCn1ncc(C(=O)c2ccc(C(F)(F)F)n(CC3CCCO3)c2=O)c1OC(=O)c1c(Cl)cc(Cl)cc1Cl (stereo not drawn) [IV-206] | 5 (90% or more of herbicidal effect and crop phytotoxicity) | 5 (90% or more of herbicidal effect and crop phytotoxicity) | 5 (90% or more of herbicidal effect and crop phytotoxicity)
16 | Cn1ncc(C(=O)c2ccc(C(F)(F)F)n(CC[S+](C)[O-])c2=O)c1O (stereo not drawn) [IV-52] | 4 (70 to less than 90% of herbicidal effect and crop phytotoxicity) | 4 (70 to less than 90% of herbicidal effect and crop phytotoxicity) | 4 (70 to less than 90% of herbicidal effect and crop phytotoxicity)
17 | CC(C)c1ccc(C(=O)C2=C(O)CCCC2=O)c(=O)n1-c1ccccc1 [I-232] | 5 (90% or more of herbicidal effect and crop phytotoxicity) | 5 (90% or more of herbicidal effect and crop phytotoxicity) | 5 (90% or more of herbicidal effect and crop phytotoxicity)
18 | C=CCn1ncc(C(=O)c2ccc(C(F)(F)F)n(C)c2=O)c1OCc1ccccc1 [IV-228] | 5 (90% or more of herbicidal effect and crop phytotoxicity) | 5 (90% or more of herbicidal effect and crop phytotoxicity) | 5 (90% or more of herbicidal effect and crop phytotoxicity)
19 | CCCS(=O)(=O)Oc1c(C(=O)c2ccc(C(F)(F)F)n(-c3ccc(Cl)c(OC)c3)c2=O)cnn1C [IV-91] | 5 (90% or more of herbicidal effect and crop phytotoxicity) | 4 (70 to less than 90% of herbicidal effect and crop phytotoxicity) | 4 (70 to less than 90% of herbicidal effect and crop phytotoxicity)
20 | COc1ccccc1Cn1c(C(F)(F)F)ccc(C(=O)C2=C(O)CCCC2=O)c1=O [I-120] | 5 (90% or more of herbicidal effect and crop phytotoxicity) | 5 (90% or more of herbicidal effect and crop phytotoxicity) | 5 (90% or more of herbicidal effect and crop phytotoxicity)
21 | CCCS(=O)(=O)Oc1c(C(=O)c2ccc(C(F)(F)F)n(CC3CCCO3)c2=O)c(C)nn1C (stereo not drawn) [IV-239] | 5 (90% or more of herbicidal effect and crop phytotoxicity) | 5 (90% or more of herbicidal effect and crop phytotoxicity) | 5 (90% or more of herbicidal effect and crop phytotoxicity)
22 | CCCCN(CCCC)n1c(C(F)(F)F)ccc(C(=O)C2=C(O)CCCC2=O)c1=O [I-174] | 5 (90% or more of herbicidal effect and crop phytotoxicity) | 5 (90% or more of herbicidal effect and crop phytotoxicity) | 5 (90% or more of herbicidal effect and crop phytotoxicity)
23 | Cn1ncc(C(=O)c2ccc(C(F)(F)F)n(CCCS(C)(=O)=O)c2=O)c1O [IV-60] | 5 (90% or more of herbicidal effect and crop phytotoxicity) | 5 (90% or more of herbicidal effect and crop phytotoxicity) | 5 (90% or more of herbicidal effect and crop phytotoxicity)
24 | Cc1ccc(SC2=C(C(=O)c3ccc(C(F)(F)F)n(C)c3=O)C(=O)CCC2)cc1 [II-9] | 5 (90% or more of herbicidal effect and crop phytotoxicity) | 5 (90% or more of herbicidal effect and crop phytotoxicity) | 5 (90% or more of herbicidal effect and crop phytotoxicity)
25 | CC(CCn1c(C(F)(F)F)ccc(C(=O)C2=C(O)C(C)CCC(C)C2=O)c1=O)=C(F)F (stereo not drawn) [II-27] | 5 (90% or more of herbicidal effect and crop phytotoxicity) | 5 (90% or more of herbicidal effect and crop phytotoxicity) | 5 (90% or more of herbicidal effect and crop phytotoxicity)
